From ChEMBL document CHEMBL1201862, “PubChem BioAssay data set” (2004) come the findings set out here.

Among the test systems are HT-29; NCI-H226; COLO 205; SN12C; SF-539; PC-3; NCI-H23; SF-268; SNB-75; UO-31; HCT-15; CAKI-1; MCF7; A549; 786-0; MDA-MB-435; RXF 393; TK-10; IGROV-1; SK-MEL-28.
What all share (assay): DTP human tumour cell line panel, 48 h

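Growth conditions: 96-well plates. Treatment: test compound, 48 hours, 5 concentrations. Analysis: linear interpolation between bracketing concentrations; unreached endpoints set to highest concentration. Abbreviation: GI50, concentration required for 50% inhibition of growth.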 The source made the active and inactive calls. Cut-off read from the data, not from the text of the source: active = GI50 up to about 1.1 µM and inactive = higher.

For orientation: GI50 means the concentration that inhibits growth by half. For `Nc1ncc2c(n1)-c1ccccc1OC2N1CCCCC1` (stereo not given), the GI50 in the assay with HT-29, with NCI-H226, with COLO 205, in the assay with SN12C, in the assay on SF-539 and in the assay on PC-3 was > 100 µM (inactive) in each case. For the same molecule, the GI50 in the assay on NCI-H23 was > 100 µM (inactive); in the assay on SF-268, > 100 µM (inactive); in the assay with SNB-75, > 100 µM (inactive); with UO-31 it was > 100 µM (inactive); in the assay with HCT-15 it was more than 100 µM; in the assay with CAKI-1, > 100 µM (inactive). The GI50 in the assay on MCF7, in the assay on A549, in the assay with 786-0, in the assay on MDA-MB-435, with RXF 393 and with TK-10 was > 100 µM (inactive) each time. Further, the GI50 in the assay with IGROV-1 is > 100 µM (inactive).
As for `c1ccc(NNN2NC(c3ccccc3)C2c2ccccc2)cc1` (stereo not given), the GI50 in the assay with HT-29, in the assay on SK-MEL-28, in the assay on NCI-H226, in the assay with COLO 205, in the assay on SN12C and with SF-539 was > 100 µM (inactive) each time. The GI50 was > 100 µM (inactive) in the assay with PC-3; 92.3 µM (inactive) in the assay on NCI-H23; > 100 µM (inactive) with SF-268; > 100 µM (inactive) in the assay on SNB-75; 36.6 µM (inactive) in the assay on UO-31; more than 100 µM in the assay on HCT-15. For the same molecule, the GI50 in the assay on CAKI-1 is > 100 µM (inactive); with MCF7 it was 98.2 µM (inactive); in the assay on A549 it was 60 µM (inactive); in the assay with 786-0, > 100 µM (inactive); with MDA-MB-435, > 100 µM (inactive); with RXF 393, 24.3 µM (inactive). Also, the GI50 with TK-10 was > 100 µM (inactive).
For the molecule `COC(=O)C(=O)C(C(=O)C(=O)Nc1ccc(Cl)c(Cl)c1)c1nc2ccc(C(=O)c3ccccc3)cc2nc1O` (stereo not given), the GI50 in the assay on HT-29 is 44.2 µM (inactive); in the assay on SK-MEL-28, 85.3 µM (inactive); with NCI-H226 it was 56.4 µM (inactive); in the assay on SN12C it was > 100 µM (inactive); in the assay with SF-539, 62.2 µM (inactive); with PC-3 it was 38.1 µM (inactive). The GI50 in the assay with NCI-H23 is 47.6 µM (inactive); with SF-268, 51.4 µM (inactive); with SNB-75, 28.3 µM (inactive); in the assay on UO-31 it was 26.4 µM (inactive); in the assay with CAKI-1, 22.5 µM (inactive); with MCF7, 35.2 µM (inactive). Besides, the GI50 in the assay with A549 was > 100 µM (inactive); in the assay with 786-0, > 100 µM (inactive); with MDA-MB-435, 35.4 µM (inactive); in the assay on RXF 393, 38.4 µM (inactive); in the assay with TK-10, > 100 µM (inactive); with IGROV-1, 33.5 µM (inactive).
Turning to `CC(C)Cn1cnnc1NS(=O)(=O)c1cc(C(=O)NN)c(Cl)cc1S`, the GI50 in the assay on HT-29, in the assay with SK-MEL-28, in the assay on NCI-H226, with COLO 205, with SN12C and with SF-539 was > 10 µM (inactive) throughout. For the same molecule, the GI50 is > 10 µM (inactive) with PC-3; > 10 µM (inactive) in the assay on NCI-H23; > 10 µM (inactive) in the assay on SF-268; > 10 µM (inactive) in the assay on SNB-75; more than 10 µM with HCT-15; > 10 µM (inactive) in the assay on CAKI-1. Besides, the GI50 in the assay with MCF7, with A549, in the assay with 786-0, in the assay with MDA-MB-435, in the assay with RXF 393 and with TK-10 was > 10 µM (inactive) in each case. The GI50 with IGROV-1 is > 10 µM (inactive).
With `O=C1CC(c2ccccc2)Oc2ccccc21` (stereo not given) [FLAVANONE], the GI50 in the assay with HT-29 is 28 µM (inactive); with SK-MEL-28, > 100 µM (inactive); in the assay with NCI-H226 it was 32.4 µM (inactive); in the assay on COLO 205, 33.6 µM (inactive); with SF-539 it was 21.8 µM (inactive); in the assay on PC-3, 38.5 µM (inactive). Besides, the GI50 in the assay with NCI-H23 was 15.9 µM (inactive); in the assay on SF-268 it was 64.7 µM (inactive); in the assay on SNB-75, 63.4 µM (inactive); in the assay on UO-31 it was 47.6 µM (inactive); in the assay with HCT-15, 26.1 µM; in the assay with CAKI-1, 48.3 µM (inactive). Moreover, the GI50 in the assay with MCF7 is 37.8 µM (inactive); in the assay on 786-0, 29.3 µM (inactive); in the assay on MDA-MB-435, 31.9 µM (inactive); in the assay on RXF 393 it was 36.2 µM (inactive); with TK-10, 76.4 µM (inactive); in the assay with IGROV-1 it was 23.4 µM (inactive).
With `OC(c1ccc(F)cc1)C(F)(F)c1nc2ccccc2o1` (stereo not given), the GI50 with HT-29, in the assay on SK-MEL-28, with NCI-H226, in the assay on COLO 205, in the assay on SF-539 and in the assay with PC-3 was > 100 µM (inactive) in each case. Also, the GI50 is > 100 µM (inactive) in the assay with NCI-H23; 38.9 µM (inactive) in the assay with SF-268; 21.6 µM (inactive) with SNB-75; > 100 µM (inactive) in the assay with UO-31; more than 100 µM in the assay with HCT-15; 87.5 µM (inactive) in the assay on CAKI-1. Further, the GI50 was > 100 µM (inactive) with MCF7; > 100 µM (inactive) in the assay on 786-0; > 100 µM (inactive) in the assay on MDA-MB-435; 39.4 µM (inactive) with RXF 393; > 100 µM (inactive) in the assay on TK-10; > 100 µM (inactive) in the assay with IGROV-1.
As for `CCOc1cc(NC(C)=O)ccc1C(=O)NNS(=O)(=O)c1ccc(Cl)cc1Cl`, the GI50 in the assay on HT-29, with SK-MEL-28, in the assay with NCI-H226, with COLO 205, in the assay on SN12C and in the assay on SF-539 was > 50 µM (inactive) in each case. The GI50 is > 50 µM (inactive) with PC-3; > 50 µM (inactive) in the assay on NCI-H23; > 50 µM (inactive) with SF-268; > 50 µM (inactive) in the assay on SNB-75; > 50 µM (inactive) in the assay on UO-31; more than 50 µM in the assay with HCT-15. In addition, the GI50 in the assay on CAKI-1 was > 50 µM (inactive); in the assay with MCF7 it was 26.4 µM (inactive); in the assay with A549, > 50 µM (inactive); in the assay on 786-0, > 50 µM (inactive); in the assay with MDA-MB-435 it was 12.7 µM (inactive); with RXF 393 it was > 50 µM (inactive). Further, the GI50 in the assay with IGROV-1 is > 50 µM (inactive).
As to `CCOC(=O)c1c2ccccc2n2c(=O)n(-c3ccc(OC)cc3)nnc12`, the GI50 was 65.6 µM (inactive) in the assay with SK-MEL-28; 23.3 µM (inactive) in the assay on NCI-H226; > 100 µM (inactive) in the assay with COLO 205; > 83.8 µM (inactive) in the assay on SN12C; 19.5 µM (inactive) with SF-539; 18.2 µM (inactive) with PC-3. In addition, the GI50 is 34.4 µM (inactive) with NCI-H23; 16.2 µM (inactive) in the assay with SF-268; 14.5 µM (inactive) in the assay on SNB-75; 29.4 µM (inactive) in the assay with UO-31; more than 58.6 µM with HCT-15; > 45.7 µM (inactive) with CAKI-1. Further, the 50% growth inhibitory concentration (GI50) in the assay with MCF7 is 0.555 µM (active); with A549 it was 46.5 µM (inactive); in the assay on 786-0, 17 µM (inactive); with MDA-MB-435 it was > 37.1 µM (inactive); in the assay on RXF 393, 19 µM (inactive); in the assay on TK-10, 46.6 µM (inactive). Also, in the assay on IGROV-1, the GI50 was 17.5 µM (inactive).
Turning to `O=C(/C=C/c1ccc(C(F)(F)F)cc1)c1c([O-])on[n+]1-c1ccccc1`, the concentration for 50% growth inhibition (GI50) in the assay with HT-29 was 0.889 µM (active); in the assay on SK-MEL-28, 1.61 µM (inactive); with NCI-H226 it was 6 µM (inactive); in the assay with COLO 205, 1.75 µM (inactive); in the assay on SN12C, 2.23 µM (inactive); in the assay on SF-539, 2.03 µM (inactive). The GI50 was 3.19 µM (inactive) in the assay with PC-3; 3.13 µM (inactive) in the assay on NCI-H23; 2.07 µM (inactive) with SNB-75; 1.91 µM (inactive) with UO-31; 1.31 µM in the assay on HCT-15; 0.288 µM (active) with CAKI-1. Besides, the GI50 with MCF7 is 1.15 µM (inactive); in the assay with A549, 4.03 µM (inactive); in the assay with 786-0, 0.531 µM (active); with MDA-MB-435, 1.86 µM (inactive); in the assay on RXF 393 it was 1.27 µM (inactive); in the assay with TK-10 it was 1.65 µM (inactive). In the assay on IGROV-1, the GI50 is 1.86 µM (inactive).
As for `CC(C)[Si]1(C(C)C)OCC2OC3(CO)C(Oc4nc(=O)ccn43)C2O[Si](C(C)C)(C(C)C)O1` (stereo not given), the GI50 in the assay with HT-29 is 12.4 µM (inactive); in the assay on SK-MEL-28 it was 15 µM (inactive); with NCI-H226, 15.2 µM (inactive); with COLO 205, 9.44 µM (inactive); in the assay with SF-539, 15 µM (inactive); in the assay on PC-3, 5.4 µM (inactive). Further, the GI50 was 15.5 µM (inactive) in the assay on NCI-H23; 17 µM (inactive) with SF-268; 15 µM (inactive) in the assay with SNB-75; 13.9 µM (inactive) in the assay on UO-31; 15 µM in the assay with HCT-15; 15.7 µM (inactive) with CAKI-1. In addition, the GI50 was 5.9 µM (inactive) in the assay on MCF7; 14.6 µM (inactive) with 786-0; 15 µM (inactive) with MDA-MB-435; 5.57 µM (inactive) in the assay on RXF 393; 16.6 µM (inactive) in the assay with TK-10; 17.3 µM (inactive) with IGROV-1.
On to `CCCCCCCCCCC/C=C(/C(=O)CCCO[Si](C)(C)C(C)(C)C)C(=O)OC`, for which the GI50 in the assay with HT-29, with SK-MEL-28, in the assay on NCI-H226, in the assay with COLO 205, with SN12C and with SF-539 was > 100 µM (inactive) in each case. The GI50 is > 100 µM (inactive) in the assay on PC-3; > 100 µM (inactive) in the assay on NCI-H23; > 100 µM (inactive) in the assay with SF-268; > 100 µM (inactive) with SNB-75; > 100 µM (inactive) in the assay on UO-31; more than 100 µM in the assay with HCT-15. Further, the GI50 in the assay with CAKI-1, with MCF7, in the assay on 786-0, with MDA-MB-435, in the assay on RXF 393 and with TK-10 was > 100 µM (inactive) throughout. The GI50 with IGROV-1 was > 100 µM (inactive).
